Earlier results, collected in US7858592B2, “Interfering RNAs against the promoter region of P53” (The Board of Regents of the University of Texas System, priority 2007, dated 2010).
Counter-ions that a name gives are not always drawn.

Tests used:
[1] = not given; remark: listed apart in the source
[2] = not given; remark: listed apart in the source

SMILES: N[C@H](Cc1ccc(N(CCCl)CCCl)cc1)C(=O)O [medphalan]
- activity relative to the L-isomer (certain animal tumors): less active

SMILES: O.O=P1(N(CCCl)CCCl)NCCCO1 (stereo not drawn) [Cyclophosphamide, 2H-1,3,2-Oxazaphosphorin-2-amine, N,N-bis(2-chloroethyl)tetrahydro-, 2-oxide, monohydrate]
- local tolerability (oral and parental routes): does not cause local vesication, necrosis, phlebitis or even pain

SMILES: O=NN(CCCl)C(=O)NC1CCCCC1 [Lomustine, 1-(2-chloro-ethyl)-3-cyclohexyl-1 nitrosourea]
- tissue levels versus plasma levels ([1]; 15 minutes after intravenous administration): comparable to plasma levels

SMILES: CC[C@]1(O)C[C@H]2CN(CCc3c([nH]c4ccccc34)[C@@](C(=O)OC)(c3cc4c(cc3OC)N(C=O)[C@H]3[C@@](O)(C(=O)OC)[C@H](OC(C)=O)[C@]5(CC)C=CCN6CC[C@]43[C@@H]65)C2)C1 [Vincristine]
- toxicity for normal marrow cells and epithelial cells (in vivo): relatively low toxicity

SMILES: CC[C@@]1(O)C(=O)OCc2c1cc1n(c2=O)Cc2cc3ccccc3nc2-1 [Camptothecin]
- solubility in water [2]: poor water-solubility

SMILES: COc1cccc2c1C(=O)c1c(O)c3c(c(O)c1C2=O)C[C@@](O)(C(=O)CO)C[C@@H]3O[C@H]1C[C@H](N)[C@H](O)[C@H](C)O1 [Doxorubicin, 5,12-Naphthacenedione, (8s-cis)-10-[(3-amino-2,3,6-trideoxy-a-L-lyxo-hexopyranosyl)oxy]-7,8,9,10-tetrahydro-6,8,11-trihydroxy-8-(hydroxyacetyl)-1-methoxy-hydrochloride]
- excreted into the urine ([1]; in vivo): a few percent
